The test addresses T1, hS1P1 receptor (Homo sapiens, UniProt P21453).
T1 construct: host or cells: U2OS
Kind of test: hS1P1 receptor internalization assay (cell imaging-based, hS1P1-eGFP U2OS cells). Particulars: U2OS cell line expressing hS1P1-eGFP, compounds incubated at 37° C. for one hour; for Emax: 1 h, efficacy (Max), read-out: hS1P1 Receptor Internalization (biolimaging) Max (%); for EC50: GFP-containing endosomes per cell (ArrayScan), read-out: hS1P1 Receptor Internalization (bioimaging) EC50 IP. Here is the method:
The activity of compounds of the invention was determined by a cell imaging-based assay measuring the degree of hS1P1 receptor internalization and a Ca^2+ mobilization assay measuring the level of S1P receptor activation. The receptor internalization assay was employed to determine the potency and efficacy of compounds on hS1P1 receptor, while Ca^2+ mobilization assay was used to determine selectivity among different S1P receptors and activity on S1P receptors from species such as rat, dog, and cyno. The hS1P1 receptor internalization assay was performed using a U2OS cell line expressing hS1P1-eGFP chimeric protein (Thermo Scientific, Soeborg, Denmark). Upon compound treatment, the hS1P1 receptor was internalized in cytoplasma and formed GFP-containing-endosomes. This event was detected by an automated microscope, ArrayScan (Thermo Scientific Cellomics, Pittsburg), and the degree of receptor internalization is quantitated by counting green fluorescent GFP-containing endosomes per cell. In this assay, hS1P1-eGFP expressing U2OS cells were starved in serum free media for two hours prior to compound treatment. Then compounds were incubated with the starved cells at 37° C. for one hour. Subsequently, compound-treated cells were fixed using 4% formaldehyde, and the nuclei were stained using Hoechst. Then the cells were imaged in ArrayScan. The potency and efficacy of the compounds were determined by plotting the number of green fluorescent GFP-containing endosomes per cell against corresponding compound concentration.

Molecules are shown by their SMILES. Counter-ions that a name gives are not always drawn.

For orientation: EC50 means the concentration needed to bring the measured effect to its halfway point.

T1 sequence (P21453 whole entry): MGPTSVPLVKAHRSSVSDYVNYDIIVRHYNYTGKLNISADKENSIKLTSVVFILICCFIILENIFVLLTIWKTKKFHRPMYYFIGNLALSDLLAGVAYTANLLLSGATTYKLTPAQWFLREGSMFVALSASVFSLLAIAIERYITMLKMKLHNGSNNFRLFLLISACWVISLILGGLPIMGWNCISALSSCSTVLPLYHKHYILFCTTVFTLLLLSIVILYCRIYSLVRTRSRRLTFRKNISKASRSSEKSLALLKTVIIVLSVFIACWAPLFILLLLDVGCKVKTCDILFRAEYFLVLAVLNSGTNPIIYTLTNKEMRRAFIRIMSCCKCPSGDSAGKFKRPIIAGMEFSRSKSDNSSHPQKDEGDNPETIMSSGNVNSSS

`CC(C)(N)c1ccc(-c2nc3ccc(C4(c5ccccc5)CC4)nc3s2)c(F)c1` [Example 22, 2-(3-fluoro-4-(5-(1-phenylcyclopropyl)thiazolo[5,4-b]pyridine-2-yl)phenyl)-propan-2-amine]: the Emax amounted to 157% and the concentration for a half-maximal effect (EC50) was 192 nM.

Consider `O=C(O)COCc1ccc(-c2nc3ccc(C4(c5ccccc5)CC4)nc3s2)c(F)c1` [Example 85, 2-(3-fluoro-4-(5-(1-phenylcyclopropyl)thiazolo[5,4-b]pyridin-2-yl)benzyloxy)acetic acid], for which the Emax is 88% and the EC50 was determined as 1270 nM.

As to `O=C(O)C1CN(Cc2ccc(-c3nc4cnc(C5(c6ccccc6)CC5)cc4s3)c(F)c2)C1` [Example 45, 1-(3-fluoro-4-(6-(1-phenylcyclopropyl)thiazolo[4,5-c]pyridine-2-yl)benzyl)azetidine-3-carboxylic acid trifluoroacetic acid salt], the Emax worked out at 103% and the half-maximal effective concentration (EC50) worked out at 99.7 nM.

The values are drawn from patent US7842685B2, “S1P1 receptor agonists and use thereof” (Amgen Inc., priority 2008, dated 2010).
